Results: ChEMBL document CHEMBL1121499, “Experimental antiulcer drugs.4. 1,3-Disubstituted 2,4,5,6-tetrahydro-4,6,6 -trimethyl-2-phenylcyclopenta[c]pyrrole-4-carboxamides” (J Med Chem, 1980)

How the values were obtained:
Set-up in all cases: dose 100 mg/kg, route oral
Settings in all cases: in vivo, po
Rattus norvegicus [1] = test: Tested for gastric antisecretory activity in the pyloric ligated rat by observing the pH of gastric contents at dose 100 mg/kg orally 1 hr prior to the 5-h pyloric ligation period; pH < 2 is inactive; assay type: ADME, organism-based, Stomach
Rattus norvegicus [2] = test: Tested for gastric antisecretory activity in the pyloric ligated rat by observing the pH of gastric contents at dose 100 mg/kg orally 1 hr prior to the 5-h pyloric ligation period; assay type: ADME, organism-based, Stomach
Rattus norvegicus [3] = test: Tested for gastric antisecretory activity in the pyloric ligated rat by observing the pH of gastric contents at dose 100 mg/kg orally 1 h prior to the 5-h pyloric ligation period; Inactive; assay type: organism-based, Stomach

pH (Rattus norvegicus [2]) | SMILES | other results
 | CC1(C)CC(C)(C(N)=O)c2cn(-c3ccccc3)cc21 (stereo not drawn) | pH (Rattus norvegicus [1]): 1.1
1.5 | CC1(C)CC(C)(C(N)=O)c2cn(-c3ccccc3)c(C=O)c21 (stereo not drawn) | 
1.2 | CC1(C)CC(C)(C(N)=O)c2c1c(C=O)n(-c1ccccc1)c2C=O (stereo not drawn) | 
7 | Cc1c2c(c(CO)n1-c1ccccc1)C(C)(C(N)=O)CC2(C)C (stereo not drawn) | 
 | Cc1c2c(cn1-c1ccccc1)C(C)(C)CC2(C)C(N)=O (stereo not drawn) | pH (Rattus norvegicus [3]): 1.2
1.5 | Cc1c2c(c(C=O)n1-c1ccccc1)C(C)(C)CC2(C)C(N)=O (stereo not drawn) | 
 | CCc1c2c(c(CC)n1-c1ccccc1)C(C)(C(N)=O)CC2(C)C (stereo not drawn) | pH (Rattus norvegicus [1]): 1.1
6.2 | Cc1c2c(c(C)n1-c1ccccc1)C(C)(C(N)=O)CC2(C)C (stereo not drawn) | 
1.2 | Cc1c2c(c(C=O)n1-c1ccccc1)C(C)(C(N)=O)CC2(C)C (stereo not drawn) | 
5.7 | Cc1c2c(c(CO)n1-c1ccccc1)C(C)(C)CC2(C)C(N)=O (stereo not drawn) | 
2.6 | Cc1c2c(cn1-c1ccccc1)C(C)(C(N)=O)CC2(C)C (stereo not drawn) | 
6.4 | CC1(C)CC(C)(C(N)=O)c2cn(-c3ccccc3)c(CO)c21 (stereo not drawn) | 
 | CC1(C)CC(C)(C(N)=O)c2c1c(CO)n(-c1ccccc1)c2CO (stereo not drawn) | pH (Rattus norvegicus [1]): 1.2
